Results on 20 compounds are retold here after the supplement of paper PMC5412046.

Assay [1] concerns SB.msgc-1. The experiment in a line: viability at highest tested concentration (MAXR) relative to DMSO; higher = less cytotoxic. To be noted: SB.msgc-1 (sporadic gastric cancer). The essentials:
(§1)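 Reported here is DMSO-normalised viability, either at the highest concentration or as a trapezoidal area under the curve. Hereditary or sporadic patient-derived gastric cancer cells received compound by pintool at 11 threefold-diluted concentrations and were read with CellTiter-Glo after 48 h.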

The subject of assay [2] is SB.mhdgc-1. Described as above. To be noted: SB.mhdgc-1 (hereditary c.1380delA CDH1 gastric cancer). The method, boiled down:
as §1

The test system of assay [3] is SB.msgc-1. The experiment in a line: area under the dose-response curve of % viability (trapezoidal, 11 doses) (% viability x log10 concentration); higher = less cytotoxic. To be noted: SB.msgc-1 (sporadic gastric cancer). The method, boiled down:
as §1

Assay [4] has as its system SB.mhdgc-1. The description is as above. To be noted: SB.mhdgc-1 (hereditary c.1380delA CDH1 gastric cancer). The essentials:
as §1

With `CO[C@H]1C[C@@H]2CC[C@@H](C)[C@@](O)(O2)C(=O)C(=O)N2CCCC[C@H]2C(=O)O[C@H]([C@H](C)C[C@@H]2CC[C@@H](OCCO)[C@H](OC)C2)CC(=O)[C@H](C)/C=C(/C)[C@@H](O)[C@@H](OC)C(=O)[C@H](C)C[C@H](C)\C=C/C=C\C=C/1C` [Everolimus] (top concentration 46.0829 µM), the viability (usually a read-out of living cells in per cent, often relative to untreated cells) with SB.msgc-1 [1] stood at 79.6%; with SB.mhdgc-1 [2] it was 41%. The “area under the dose-response curve” value in the assay with SB.msgc-1 [3] was found to be 466; in the assay with SB.mhdgc-1 [4] it was 356.

`Cc1n[nH]c2ccc(-c3cncc(OC[C@@H](N)Cc4ccccc4)c3)cc12` (top concentration 46.0829 µM): the values for the viability in the assay on SB.msgc-1 [1] and with SB.mhdgc-1 [2] were 16.3% and 0.463%, respectively. Further, the “area under the dose-response curve” value in the assay with SB.msgc-1 [3] turned out to be 458; in the assay with SB.mhdgc-1 [4], 389.

With `COc1ccc2c(c1OC)C(=O)O[C@H]2[C@H]1c2c(cc3c(c2OC)OCO3)CCN1C` [Noscapine] (top concentration 46.0829 µM), the viability in the assay with SB.msgc-1 [1] came out at 45%; in the assay on SB.mhdgc-1 [2] it was 31.9%. For the same compound, the “area under the dose-response curve” value was found to be 392 in the assay with SB.msgc-1 [3] and 418 in the assay with SB.mhdgc-1 [4].

Turning to `O=C(Nc1cc2cc[nH]c2cn1)c1ccccc1` [OAC1] (top concentration 46.0829 µM), the viability with SB.msgc-1 [1] was determined as 20.4%; in the assay with SB.mhdgc-1 [2], 13.9%. Moreover, the figures for the “area under the dose-response curve” value in the assay with SB.msgc-1 [3] and with SB.mhdgc-1 [4] were 397 and 395, respectively.

Regarding `C[C@@H]1[C@H](O)[C@@H](C)/C=C/C=C/C=C/C=C/C=C/C=C/C=C/[C@H](O[C@@H]2O[C@H](C)[C@@H](O)[C@H](N)[C@@H]2O)C[C@@H]2O[C@](O)(C[C@@H](O)C[C@@H](O)[C@H](O)CC[C@@H](O)C[C@@H](O)CC(=O)O[C@H]1C)C[C@H](O)[C@H]2C(=O)O` [Amphotericin B] (top concentration 46.0829 µM), the viability in the assay on SB.msgc-1 [1] worked out at 55%; with SB.mhdgc-1 [2], 30.6%. Moreover, the “area under the dose-response curve” value with SB.msgc-1 [3] is 564; in the assay with SB.mhdgc-1 [4], 382.

Consider `COC(=O)Nc1nc2cc(C(=O)c3ccc(F)cc3)ccc2[nH]1` [Flubendazole] (top concentration 46.0829 µM), for which the viability amounted to 17.7% in the assay on SB.msgc-1 [1] and 19.6% in the assay on SB.mhdgc-1 [2]. Also, the “area under the dose-response curve” value with SB.msgc-1 [3] was 308; in the assay with SB.mhdgc-1 [4], 419.

With `CO[C@H]1/C=C/O[C@@]2(C)Oc3c(C)c(O)c4c(O)c(c(/C=N\N5CCN(C6CCCC6)CC5)c(O)c4c3C2=O)NC(=O)/C(C)=C\C=C\[C@H](C)[C@H](O)[C@@H](C)[C@@H](O)[C@@H](C)[C@H](OC(C)=O)[C@@H]1C` [Rifapentine] (top concentration 46.0829 µM), the viability with SB.msgc-1 [1] was 38.1%; with SB.mhdgc-1 [2] it was 7.61%. Also, the “area under the dose-response curve” value in the assay with SB.msgc-1 [3] is 322; with SB.mhdgc-1 [4], 233.

On to `C[C@H]1[C@@H](OC(=O)CCC(=O)O)O[C@@H]2O[C@@]3(C)CC[C@H]4[C@H](C)CC[C@@H]1[C@@]24OO3` [Artesunate (AS)] (top concentration 46.0829 µM), for which the viability is 41.4% in the assay on SB.msgc-1 [1] and 9.23% with SB.mhdgc-1 [2]. For the same compound, the “area under the dose-response curve” value in the assay on SB.msgc-1 [3] was 499; in the assay on SB.mhdgc-1 [4], 441.

For the compound `COCC(=O)NC/C=C/c1ccc2ncnc(Nc3ccc(Oc4ccc(C)nc4)c(C)c3)c2c1` (top concentration 46.0829 µM), the results for the viability with SB.msgc-1 [1] and in the assay with SB.mhdgc-1 [2] were 33.4% and 59.7%, respectively. Further, the “area under the dose-response curve” value in the assay with SB.msgc-1 [3] came to 345; in the assay on SB.mhdgc-1 [4] it was 484.

Turning to `CN(C)NC(=O)CCC(=O)O` [Daminozide] (top concentration 46.0829 µM), the viability turned out to be 88% in the assay with SB.msgc-1 [1] and 100% in the assay on SB.mhdgc-1 [2]. Also, the “area under the dose-response curve” value with SB.msgc-1 [3] was 498; with SB.mhdgc-1 [4] it was 518.

For the compound `CC(C)c1onc(-c2c(Cl)cccc2Cl)c1COc1ccc(/C=C/c2cccc(C(=O)O)c2)c(Cl)c1` [GW-4064X] (top concentration 46.0829 µM), the viability is 74.3% in the assay on SB.msgc-1 [1] and 80.6% with SB.mhdgc-1 [2]. Also, the “area under the dose-response curve” value stood at 588 in the assay on SB.msgc-1 [3] and 501 in the assay with SB.mhdgc-1 [4].

As to `CN(C)[S+](=O)([O-])c1ccc2c(c1)C(=Cc1cc3c([nH]1)CCCC3)C(=O)N2` [SU-6656] (top concentration 46.0829 µM), the viability with SB.msgc-1 [1] is 67.8%; in the assay with SB.mhdgc-1 [2] it was 59.7%. Further, the “area under the dose-response curve” value is 506 with SB.msgc-1 [3] and 507 in the assay with SB.mhdgc-1 [4].

On to `C=CC(=O)Nc1cc(NC(=O)c2ccc(C)c(NC(=O)c3ccno3)c2)cc(C(F)(F)F)c1` (top concentration 46.0829 µM), for which the results for the viability with SB.msgc-1 [1] and with SB.mhdgc-1 [2] were 36.4% and 4.49%, respectively. Besides, the “area under the dose-response curve” value with SB.msgc-1 [3] is 504; in the assay with SB.mhdgc-1 [4] it was 521.

For the compound `COC(=O)N1CCN(Cc2cccc(NC(=O)Nc3ccc(C)nc3)c2F)CC1` [Omecamtiv mecarbil] (top concentration 46.0829 µM), the viability in the assay on SB.msgc-1 [1] worked out at 72.8%; in the assay on SB.mhdgc-1 [2], 63.7%. For the same compound, the “area under the dose-response curve” value with SB.msgc-1 [3] is 503; in the assay with SB.mhdgc-1 [4], 397.

`CC[S+](=O)([O-])N1CC(CC#N)(n2cc(-c3ncnc4[nH]ccc34)cn2)C1` [Baricitinib] (top concentration 46.0829 µM): the results for the viability in the assay with SB.msgc-1 [1] and with SB.mhdgc-1 [2] were 70.6% and 41.1%, respectively. The “area under the dose-response curve” value was 523 in the assay on SB.msgc-1 [3] and 470 in the assay on SB.mhdgc-1 [4].

For the compound `OCc1ccc(-c2ccc(-c3ccc(CO)s3)o2)s1` [RITA] (top concentration 46.0829 µM), the results for the viability in the assay on SB.msgc-1 [1] and with SB.mhdgc-1 [2] were 42% and 0.154%, respectively. Also, the “area under the dose-response curve” value with SB.msgc-1 [3] was 495; in the assay on SB.mhdgc-1 [4] it was 371.

On to `CN(C)CCc1c[nH]c2ccc(Cn3cncn3)cc12` [Rizatriptan benzoate] (top concentration 46.0829 µM), for which the values for the viability with SB.msgc-1 [1] and in the assay on SB.mhdgc-1 [2] were 71.7% and 107%, respectively. The entries for the “area under the dose-response curve” value in the assay on SB.msgc-1 [3] and in the assay on SB.mhdgc-1 [4] were 392 and 589, respectively.

For `O=C(O)Cn1nnc(-c2cc(N3CCC(Oc4cc(F)ccc4Br)CC3)no2)n1` [MK-8245] (top concentration 46.0829 µM), the viability came to 64.6% in the assay with SB.msgc-1 [1] and 133% in the assay with SB.mhdgc-1 [2]. The entries for the “area under the dose-response curve” value in the assay on SB.msgc-1 [3] and with SB.mhdgc-1 [4] were 478 and 526, respectively.

Take `C=C(C)[C@@H]1CC[C@]2(C)CC[C@]3(C)[C@H](CC[C@@H]4[C@@]5(C)CC[C@H](O)C(C)(C)[C@@H]5CC[C@]43C)[C@@H]12` [Lupeol] (top concentration 46.0829 µM): the figures for the viability in the assay on SB.msgc-1 [1] and in the assay with SB.mhdgc-1 [2] were 108% and 134%, respectively. The “area under the dose-response curve” value in the assay with SB.msgc-1 [3] came out at 522; in the assay on SB.mhdgc-1 [4], 609.

As to `C/C1=C2/[N]3[Co+]456([OH])<-[N]7=C1[C@@H](CCC(N)=O)C(C)(C)/C7=C/C1=[N]->4C(=C(/C)C4=[N]->5[C@@](C)([C@H]3[C@H](CC(N)=O)[C@@]2(C)CCC(=O)NC[C@@H](C)OP(=O)([O-])O[C@H]2[C@@H](O)[C@@H](n3c[n]->6c5cc(C)c(C)cc53)O[C@@H]2CO)[C@@](C)(CC(N)=O)[C@@H]4CCC(N)=O)/[C@@](C)(CC(N)=O)[C@@H]1CCC(N)=O` [Hydroxocobalamin] (top concentration 46.0829 µM), the viability is 32.5% in the assay with SB.msgc-1 [1] and 67.6% in the assay on SB.mhdgc-1 [2]. Moreover, the “area under the dose-response curve” value in the assay on SB.msgc-1 [3] was 283; with SB.mhdgc-1 [4] it was 510.
